Patent US6290974A, “Protein ingredient for carrying lipophilic nutrients” (priority 1998, dated 2001)
Read-outs that look alike come from different tables or passages of the source.

What was measured:
β-lactoglobulin (β-Lg) [1] = target: T1, β-lactoglobulin (β-Lg) (Bos taurus, UniProt P02754); test: Fluorescence titration of β-Lg with ligands (Equation [1]; Kd and n); assay type: binding; details: for n, Table 2: β-Lg titration as in Example 3
T1 construct: Isolation of β-Lg from Whey; from tissue; host or cells: whey (milk), purified by bioselective adsorption on N-retinyl-Celite
T1 sequence (P02754 17-178): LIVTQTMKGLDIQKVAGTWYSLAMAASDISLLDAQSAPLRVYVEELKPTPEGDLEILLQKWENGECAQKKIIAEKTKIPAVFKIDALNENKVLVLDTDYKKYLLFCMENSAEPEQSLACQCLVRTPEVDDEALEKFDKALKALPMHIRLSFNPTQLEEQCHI
Experimental: (§1) Fluorescence spectra were recorded at 23 ° C. with a System 3 Scanning Spectrofluorometer (Optical Technology Devices, Inc., Elmsford, N.Y.) using the ratio mode. Excitation and emission spectra were obtained with 1 μM solutions of β-Lg in 50 mM sodium phosphate, pH 7.0, both in the presence and absence of 2 μM concentrations of the various ligands. Titration of β-Lg with the various ligands was quantified by measuring the fluorescence quenching of the protein tryptophanyl residues (excitation at 287 nm, emission measured at 332 nm). The spectrofluorometer cuvette contained 2.5 ml of 1 μM β-Lg in the phosphate buffer to which 2.5-μl increments of the ligand solution in ethanol or ethyl ether were added with a micropipette. Dufour et al., (1990) FEBS Lett. 277, 223. […] Cogan et al., (1976) Eur. J. Biochem. 65, 71.
(§2) The titration can also be followed by measuring the increase in vitamin D or cholesterol fluorescence that was due to energy transfer from the tryptophanyl residue. Thus, with excitation at 287 nm, emission was measured at 412 nm for vitamin D or 390 nm for cholesterol.
The titration data can be used to evaluate the equilibrium dissociation constant and the number of binding sites per monomer as has been previously described. Cogan et al., (1976) Eur. J. Biochem. 65, 71; Dufour and Haertle, (1991) Biochim. Biophys. Acta 1079, 316; Wang et al., (1997) J. Dairy Sci. 80, 1047. The linear regression equation
(§3) PT a=(1/n)[RT a/(1-a)]-Kd /n
(§4) is used to calculate n, the number of binding sites per molecule of protein and Kd, the apparent dissociation constant. In this equation, PT is total protein concentration, and RT is total ligand concentration.
Cho et al., (1994) J. Biol. Chem. 269, 11102; Dufour and Haertle, (1991) Biochim. Biophys. Acta 1079, 316; Wang et al., (1997) J. Dairy Sci. 80, 1047. […] Cho et al., (1994) J. Biol. Chem. 269, 11102; Dufour and Haertle, (1991) Biochim. Biophys. Acta 1079, 316; Wang et al., (1997) J. Dairy Sci. 80, 1047.
(§5) Possible binding of vitamin D3 to β-Lg was also investigated by recording the fluorescence emission at 412 nm as a function of the excitation wavelength for vitamin solutions with and without added β-Lg (FIG. 4). […] In a titration experiment, the protein fluorescence at 332 nm with excitation at 287 nm was determined as a function of vitamin D3 concentration (FIG. 3). […] Also, the increase of vitamin D3 fluorescence at 412 nm with excitation at 287 nm for varying vitamin concentrations can be plotted according to Equation [1] as shown in FIG. 5B.
Dufour and Haertle, (1991) Biochim. Biophys. Acta 1079, 316; Wang et al., (1997) J. Dairy Sci. 80, 1047.
The potential binding of both cholesterol and 7-dehydrocholesterol to β-Lg was examined by fluorescence spectroscopy, essentially as described above for vitamin D (Example 3).
The titration data were used to calculate the equilibrium dissociation constant (Kd) and the number of binding sites per β-Lg monomer (n), as described in Example 3.

β-lactoglobulin (β-Lg) [2] = target: T1, β-lactoglobulin (β-Lg); test: Fluorescence titration of β-Lg with linoleic acid, conjugated linoleic acid and its methyl ester (Trp19 enhancement); assay type: binding; details: 10 μM β-Lg
Excerpt: The titration data can be used to evaluate the equilibrium dissociation constant and the number of binding sites per monomer as has been previously described. […] Biophys. […] The linear regression equation
as §3, §4

β-lactoglobulin (β-Lg) [3] = target: T1, β-lactoglobulin (β-Lg); details: cited from earlier work; for binding to β-Lg reported (in words): in vitro
β-lactoglobulin (β-Lg) [4] = target: T1, β-lactoglobulin (β-Lg); test: Fluorescence emission/excitation spectra of β-Lg with and without ligand; assay type: binding
Experimental: as §1, §2
Binding of hydrophobic ligands in proximity to Trp19 results in energy transfer between this protein residue and the ligand, and thus changes in the fluorescence emission spectra can be used to follow complex formation. Fluorescence emission spectra of β-Lg with and without bound vitamin D2 that result from excitation of tryptophanyl residues at 287 nm are shown in FIG. 1.
as §5
The potential binding of both cholesterol and 7-dehydrocholesterol to β-Lg was examined by fluorescence spectroscopy, essentially as described above for vitamin D (Example 3). […] A plot of the data that were obtained with varying cholesterol concentrations according to Equation [1] from Example 3 was similar to that for vitamin D3, shown in FIG. 5.
Studies were undertaken to evaluate whether other fat-soluble vitamins bind to β-Lg. Fluorescence emission spectra of β-Lg in the presence and absence of vitamin E, vitamin K1, or vitamin K2 were obtained essentially as described in Example 3.

[5] = 1 μM β-Lg, 50 mM phosphate pH 7.0, 23 °C, triplicate titrations (vitamin D2: five; ergosterol: single)

CCCCCCCCCCCCCCCC(=O)OC/C=C(C)/C=C/C=C(C)/C=C/C1=C(C)CCCC1(C)C [Retinyl palmitate (P), Retinyl palmitate]
n, Table 2 (β-lactoglobulin (β-Lg) [1]): 1.2 mol/mol β-LG

CC(C)[C@@H](C)/C=C/[C@@H](C)[C@H]1CC[C@H]2C3=CC=C4C[C@@H](O)CC[C@]4(C)[C@H]3CC[C@]12C [Ergosterol, ergosterol]
mol bound per mol of protein (Example 4) (β-lactoglobulin (β-Lg) [1]): 2 mol~mol^-1
n (number of binding sites per molecule of protein), Table 1 (β-lactoglobulin (β-Lg) [1]; [5]): 2.02 mol/mol of protein
Kd (β-lactoglobulin (β-Lg) [1]; 1 μM β-Lg, 50 mM phosphate pH 7.0, 23 °C, triplicate titrations (vitamin D2: five; ergosterol: single), read-out: Kd (apparent dissociation constant), Table 1): 0.00625 µM
binding affinity, comparative (in words) (β-lactoglobulin (β-Lg) [1]; compared with other ligands of Table 1 or the retinoids): significantly greater

CCCCC/C=C\C/C=C\CCCCCCCC(=O)O [LA, linoleic acid]
Kd (β-lactoglobulin (β-Lg) [2]; 27 °C, read-out: order of Kd (text, Example 7)): ~0.1 µM
n, Table 3 (β-lactoglobulin (β-Lg) [2]; pH 7, 27 °C, enhancement at 332 nm, excitation 287 nm): 1.01 mol/mol β-LG
Kd (β-lactoglobulin (β-Lg) [2]; pH 7, 27 °C, enhancement at 332 nm, excitation 287 nm, read-out: Kd, Table 3): 0.143 µM
n, Table 3, from Frapin et al. (β-lactoglobulin (β-Lg) [3]; From Frapin et al., J. Protein Chem. 12, 443 (1993)): 0.83 mol/mol β-LG
Kd (β-lactoglobulin (β-Lg) [3]; From Frapin et al., J. Protein Chem. 12, 443 (1993), read-out: Kd, Table 3, from Frapin et al.): 0.19 µM

Cc1c2ccncc2c(C)c2c1[nH]c1ccccc12 [ellipticine]
binding to β-Lg reported (in words) (β-lactoglobulin (β-Lg) [3]): reported to bind

CC1=CC(=O)c2ccccc2C1=O [Vitamin K3, menadione]
β-Lg fluorescence, 300 to 360 nm (β-lactoglobulin (β-Lg) [4]): No quenching
binding in the β-Lg calyx (β-lactoglobulin (β-Lg) [4]; inferred from absence of quenching): does not bind

C=CC1=C(C)c2cc3[nH]c(cc4nc(cc5[nH]c(cc1n2)c(C)c5CCC(=O)O)C(CCC(=O)O)=C4C)c(C)c3C=C [protoporphyrin IX]
binding to β-Lg reported (in words) (β-lactoglobulin (β-Lg) [3]): reported to bind

CCCCCCCCCCCCCCCC(=O)OC/C=C(C)/C=C/C=C(C)/C=C/C1=C(C)CCCC1(C)C [Retinyl palmitate (R), Retinyl palmitate]
n, Table 2 (β-lactoglobulin (β-Lg) [1]): 0.8 mol/mol β-LG

C=C1CC[C@H](O)C/C1=C/C=C1\CCC[C@]2(C)[C@@H]([C@H](C)CCCC(C)C)CC[C@@H]12 [Vitamin D3, cholecalciferol]
Kd (β-lactoglobulin (β-Lg) [1]): 0.036 µM
n (number of binding sites per molecule of protein), Table 1 (β-lactoglobulin (β-Lg) [1]; [5]): 2.01 mol/mol of protein
Kd (β-lactoglobulin (β-Lg) [1]; Kd, Table 2, β-Lg titration as in Example 3): 0.036 µM
molecules bound per molecule of protein (β-lactoglobulin (β-Lg) [1]; per molecule of protein / β-Lg monomer): 2 molecules
n, Table 2 (β-lactoglobulin (β-Lg) [1]): 2.0 mol/mol β-LG
ligand fluorescence at 412 nm with excitation around 287 nm in presence of β-Lg (β-lactoglobulin (β-Lg) [4]; 2 μM ligand, 1 μM β-Lg, pH 7.0, 23 °C): increased intensity
